Legend:
[1] = system: mitochondrial membrane potential in CHO—K1 cells; assay: cells; type: cell-based; settings: for EC50: Cricetulus griseus, read-out: EC50 (decrease of mitochondrial membrane potential)
Method: 24 hours before assay, CHO—K1 cells were seeded in a 384 well plate at 75,000 cells per well in 50 μl growth medium (Iscove's Modified Dulbecco's Medium Invitrogen, 12440-046, 10% Fetal Bovine Serum (Invitrogen, 26140-095), 1× HT Supplement (Invitrogen, 11067-030) 1× Penicillin-Streptomycin solution (Hyclone, SV30010) 2 mM Glutamine (Hyclone, SH30034.01). Cells were then incubated overnight at 37° C., 5% carbon dioxide. When commencing the assay, 50 μl of assay buffer (50 mM Hepes, pH 7.4 150 mM KCL, 1600 mM NaCl, 25 mM D-(+)-glucose) was added to cells. […] 10 μl of 9 μM fluorescent dye TMRM (in 10% DMSO) was added and cells are incubated for 20 minutes at room temperature. 10 μl of 16 mM Brilliant Black BN prepared in D-PBS was added to yield a 1.6 mM final concentration of Brilliant Black BN. The fluorescence was immediately read on a Molecular Devices Analyst HT fluorescent plate reader, using an excitation wavelength of 530 nm and measuring the emission at 580 nm.
24 hours before assay, CHO—K1 cells were seeded in a 384 well plate at 75,000 cells per well in 50 μl growth medium (Iscove's Modified Dulbecco's Medium, lnvitrogen, 12440-046, 10% Fetal Bovine Serum (Invitrogen, 26140-095), 1× HT Supplement (Invitrogen, 11067-030) 1× Penicillin-Streptomycin solution (Hyclone, SV30010) 2 mM Glutamine (Hyclone, SH30034.01). Cells were then incubated overnight at 37° C., 5% carbon dioxide. When commencing the assay, 50 μl of assay buffer (50 mM Hepes, pH 7.4 150 mM KCL, 1600 mM NaCl, 25 mM D-(+)-glucose) was added to cells. 1 μl of the various amounts of the cation ionophore, H+—K+ antiporter, nigericin, was added and the cells are then incubated for 30 minutes at 37° C., 5% carbon dioxide. 10 μl of 9 μM fluorescent dye TMRM (in 10% DMSO) was added and cells are incubated for 20 minutes at room temperature. 10 μl of 16 mM Brilliant Black BN prepared in D-PBS was added yield a 1.6 mM final concentration of Brilliant Black BN. The fluorescence was immediately read on a Molecular Devices Analyst HT fluorescent plate reader, using an excitation wavelength of 530 nm and measuring the emission at 580 nm.

[2] = system: mitochondrial membrane potential in CHO—K1 cells; assay: Homogeneous TMRM/Brilliant Black BN mitochondrial membrane potential assay, 1536 well plate; type: cell-based; settings: Cricetulus griseus, 0.5 h, 30 minutes incubation, TMRM fluorescence, read-out: EC50 (decrease of mitochondrial membrane potential)
Method: 24 hours before assay, CHO—K1 cells were seeded in a 1536 well plate at 10,000 cells per well in 4 μl growth medium (Iscove's Modified Dulbecco's Medium Invitrogen, 12440-046, 10% Fetal Bovine Serum (Invitrogen, 26140-095), 1×HT Supplement (Invitrogen, 11067-030) 1× Penicillin-Streptomycin solution (Hyclone, SV30010) 2 mM Glutamine (Hyclone, SH30034.01). Cells were then incubated overnight at 37° C., 5% carbon dioxide. When commencing the assay, 4 μl of assay buffer (50 mM Hepes, pH 7.4 150 mM KCL, 1600 mM NaCl, 25 mM D-(+)-glucose) was added to cells. 80 nl of various amounts of the mitochondrial uncoupling compound, CCCP, was added and the cells were then incubated for 30 minutes at 37° C., 5% carbon dioxide. 0.8 μl of 6 μM fluorescent dye TMRM (in 20% DMSO) was added and cells were incubated for 20 minutes at room temperature. 0.8 μl of 16 mM Brilliant Black BN prepared in D-PBS was added yield a 1.6 mM final concentration of Brilliant Black BN. The fluorescence was immediately read on a Molecular Devices Tetra fluorescent plate reader, using an excitation wavelength of 530 nm and measuring the emission at 580 nm while employing a custom filter (Omega Optical) whose transmission wavelength was 580 nm±10 nm.

Compound `O=[N+]([O-])c1ccc(O)c([N+](=O)[O-])c1` [2,4-DNP, 2,4-dinitrophenol] has an EC50 ([1]; CHO-K1, 0.5 h) of 5000 nM.

For `N#CC(C#N)=NNc1cccc(Cl)c1` [CCCP, carbonylcyanide m-chlorophenylhydrazone], the EC50 ([1]; 0.5 h, adherent CHO—K1 cells, 384 well plate, 30 minutes incubation, TMRM fluorescence) was 250 nM and the EC50 [2] was 180 nM.

With `CO[C@@H]1C[C@@H](C[C@H]2CC[C@H](C)[C@H]([C@@H](C)C(=O)O)O2)O[C@]2(O[C@](C)([C@H]3CC[C@@](C)([C@@H]4O[C@@H]([C@H]5O[C@@](O)(CO)[C@H](C)C[C@@H]5C)C[C@@H]4C)O3)C[C@H]2C)[C@@H]1C` [Nigericin, nigericin] the “Effect at greater levels of nigericin” value [1] was “toxicity and membrane depolarization” and the “Effect on mitochondrial membrane potential” value ([1]; adherent CHO—K1 cells, 384 well plate, increasing amounts of nigericin) was “caused hyperpolarization of the mitochondrial membrane”.

Source: US20100209960A1, “METHOD FOR MEASURING MITOCHONDRIAL MEMBRANE POTENTIAL IN VERTEBRATE CELLS” (MERCK SHARP & DOHME CORP., priority 2007, published 2010)
